From article PMC9135895, “The effects of two gold-N-heterocyclic carbene (NHC) complexes in ovarian cancer cells: a redox proteomic study” (Cancer Chemotherapy and Pharmacology, 2022)

Experiments:
[1] = target: T1, Glyceraldehyde-3-phosphate dehydrogenase (GAPDH) (Homo sapiens, UniProt P04406); assay: GAPDH activity ([…] nm) in A2780 crude cell extract after […] min pre-incubation; assay type: biochemical
T1 construct: endogenous GAPDH in A2780 cell extract

[2] = target: T1, Glyceraldehyde-3-phosphate dehydrogenase (GAPDH); assay: GAPDH activity ([…] nm) in A2780 crude cell extract after […] min pre-incubation; no adduct seen by ESI-MS with rabbit GAPDH; assay type: biochemical

T1 sequence (P04406 2-335): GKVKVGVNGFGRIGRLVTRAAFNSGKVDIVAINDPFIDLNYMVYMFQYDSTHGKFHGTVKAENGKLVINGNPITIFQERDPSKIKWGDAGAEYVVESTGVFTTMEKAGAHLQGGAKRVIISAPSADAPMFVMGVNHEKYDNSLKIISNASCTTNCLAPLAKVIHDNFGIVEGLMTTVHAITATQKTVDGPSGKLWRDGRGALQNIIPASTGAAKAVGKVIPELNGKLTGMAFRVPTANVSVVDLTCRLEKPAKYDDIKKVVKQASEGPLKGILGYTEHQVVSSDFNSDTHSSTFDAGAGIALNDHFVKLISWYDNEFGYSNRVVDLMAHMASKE

Row | SMILES | EC50 [1] [µM] | EC50 [2] [µM]
1 | CCCCn1cc[n+](C)[c]1[Au-][Cl] [compound 1, chlorido (1-butyl-3-methyl-imidazole-2-ylidene) gold(I)] | 2.86 ± 0.3 | 
2 | CCCCn1cc[n+](C)[c]1[AuH][c]1n(CCCC)cc[n+]1C [compound 2, bis(1-butyl-3-methyl-imidazole-2-ylidene) gold(I)] |  | 7.13 ± 0.1
